System: C. auris [DSM 21092] biofilm
Assay: Effects on C. auris biofilms of various ages (2 h, 12 h, 24 h), crystal violet
Type: cell-based, Candida auris
Experimental: The turbidity of C. auris [DSM 21092] dispersion was measured at 280 nm and diluted to the turbidity of a 0.5 McFarland standard. C. auris was cultured in RPMI 1640 medium supplemented with […] MOPS (37 °C, 150 rpm, 2 h, 12 h, 24 h) in 96-well non-tissue microtiter plates (Falcon no. 351172, Thermo Fisher Scientific). After incubation, C. auris biofilms of various ages (2 h, 12 h, 24 h) were washed once by PBS buffer and treated (37 °C, 150 rpm, 24 h) with serial diluted Rub C (250–0.02 μg/mL) in fresh RPMI 1640 medium supplemented with […] MOPS. Samples of each time point were further processed and evaluated by a microtiter plate reader, as described above.

SMILES: C[C@@H]1[C@H](O)[C@@H](C)/C=C/C=C/CC/C=C/C=C/C=C/C=C/C(O[C@H]2O[C@H](C)[C@@H](O)[C@H](N)[C@@H]2O)CC2O[C@](O)(CC(O)C(O)CCC(O)CC(O)CC(O)CC(=O)O[C@H]1C)CC(O)C2C(=O)O (stereo partly drawn) [Nystatin, nystatin]
- biofilm attachment compared to solvent control (=0%) (2 h old C. auris biofilm, 2 µg/mL): 84 ±25%
- biofilm attachment compared to solvent control (=0%) (2 h old C. auris biofilm, 3.9 µg/mL): 39 ±10%
- biofilm attachment compared to solvent control (=0%) (2 h old C. auris biofilm, 7.8 µg/mL): 58 ±16%
- biofilm attachment compared to solvent control (=0%) (2 h old C. auris biofilm, 15.6 µg/mL): 53 ±10%
- biofilm attachment compared to solvent control (=0%) (2 h old C. auris biofilm, 31.3 µg/mL): 50 ±10%
- biofilm attachment compared to solvent control (=0%) (2 h old C. auris biofilm, 62.5 µg/mL): 47 ±8%
- biofilm attachment compared to solvent control (=0%) (12 h old C. auris biofilm, 2 µg/mL): 96 ±12%
- biofilm attachment compared to solvent control (=0%) (12 h old C. auris biofilm, 3.9 µg/mL): 64 ±12%
- biofilm attachment compared to solvent control (=0%) (12 h old C. auris biofilm, 7.8 µg/mL): 49 ±10%
- biofilm attachment compared to solvent control (=0%) (12 h old C. auris biofilm, 15.6 µg/mL): 43 ±6%
- biofilm attachment compared to solvent control (=0%) (12 h old C. auris biofilm, 31.3 µg/mL): 41 ±9%
- biofilm attachment compared to solvent control (=0%) (12 h old C. auris biofilm, 62.5 µg/mL): 45 ±8%
- biofilm attachment compared to solvent control (=0%) (24 h old C. auris biofilm, 2 µg/mL): 93 ±28%
- biofilm attachment compared to solvent control (=0%) (24 h old C. auris biofilm, 3.9 µg/mL): 48 ±2%
- biofilm attachment compared to solvent control (=0%) (24 h old C. auris biofilm, 7.8 µg/mL): 51 ±9%
- biofilm attachment compared to solvent control (=0%) (24 h old C. auris biofilm, 15.6 µg/mL): 49 ±5%
- biofilm attachment compared to solvent control (=0%) (24 h old C. auris biofilm, 31.3 µg/mL): 50 ±10%
- biofilm attachment compared to solvent control (=0%) (24 h old C. auris biofilm, 62.5 µg/mL): 46 ±5%

Reference: publication PMC10381533, “Inhibitory Effects of the Fungal Pigment Rubiginosin C on Hyphal and Biofilm Formation in Candida albicans and Candida auris” (Journal of Fungi, 2023)
